# Measurements published in patent US20220380801A1, “TRIPARTITE SYSTEMS FOR PROTEIN DIMERIZATION AND METHODS OF USE” (priority 2019, published 2022).
# How the values were obtained:
# [1] = test system: IL-2 production by split CAR-expressing Jurkat cells; assay: Split chimeric antigen receptor activation assay; type: cell-based
# From the text: A chimeric antigen receptor (CAR), a synthetic, genetically engineered version of a T-cell receptor, can direct the activation of immune cells in response to user-defined targets via target-specific recognition domains, e.g. a single chain variable antibody fragment (scFv). These multi-domain, synthetic proteins are typically constructed by fusion of the target recognition domain to a transmembrane domain, T-cell receptor co-stimulatory domain and a C-terminal CD3 zeta cytoplasmic activation domain. A split-CAR can be generated by expressing the target recognition/transmembrane/co-stimulatory domain and the CD3 zeta activation domain as two separate proteins. […]
# Lentiviral particles encoding each split CAR were generated using the pPACKH1 HIV lentivector packaging kit (Systems Bioscience), according to the manufacturer's protocol. […] Split CAR-transduced Jurkat cell pools were FACS-sorted based on GFP fluorescence to achieve equivalent expression levels for both the FKBP12:FRB and HCV NS3/4A PR (S139A):PRSIM_23 CARs before functional testing. Activation of the split-CAR-expressing Jurkat cells can be measured by interleukin-2 (IL-2) production after stimulation of the CAR (Smith-Garvin, Koretzky, and Jordan 2009). […]
# [2] = test system: HCV NS3/4A PR (S139A):PRSIM_23; assay: HTRF complex formation with alternative HCV PR inhibitors; type: binding, Hepatitis C virus subtype 1a; settings: simeprevir substituted with alternative inhibitor
# Procedure: (§1) scFv and Tn3 PRSIM binding molecules that were selective for the HCV NS3/4A PR (S139A) were identified in homogeneous time-resolved fluorescence (HTRF®) assays run in parallel to measure binding in the presence and absence of simeprevir. HCV NS3/4A PR (S139A), and serial dilutions of purified PRSIM binding molecules, were prepared in assay buffer (PBS containing 0.4 M potassium fluoride and 0.1% BSA). Streptavidin cryptate (Cisbio) was pre-mixed with either anti-FLAG XL665 (to detect the Tn3 molecules) or anti-c-myc XL665 (to detect the scFv molecules) in assay buffer. For each assay 2.5 μl of sample titration was added to 2.5 μl HCV NS3/4A PR (S139A) and 2.5 μl of pre-mixed detection reagents. Either 2.5 μl simeprevir or 2.5 μl of a DMSO blank were also added to each well. […] Assay plates were incubated overnight at 4° C., prior to reading the time resolved fluorescence at 620 nm and 665 nm emission wavelengths using a PerkinElmer Envision plate reader. Data was analysed by calculating % Delta F values for each sample. Delta F was determined according to equation 1.
# (§2) There are several small molecule inhibitors that are known to bind the HCV NS3/4A protease and have been approved for human use. A panel of such small molecules were assessed for their ability to induce complex formation between HCV NS3/4A PR (S139A) and PRSIM_23 or PRSIM_57. […]
# [3] = test system: HCV NS3/4A PR (S139A):PRSIM_57; assay: as above; type: binding, Hepatitis C virus subtype 1a; settings: simeprevir substituted with alternative inhibitor
# Procedure: as §1, §2
compound,measurement,setting,value
COc1ccc2c(O[C@@H]3C[C@H]4C(=O)N[C@]5(C(=O)NS(=O)(=O)C6CC6)C[C@H]5/C=C\CCCCN(C)C(=O)[C@@H]4C3)cc(-c3nc(C(C)C)cs3)nc2c1C [simeprevir],activation of CAR-expressing Jurkat cells (IL-2 production),[1]; co-culture with antigen-negative A375 cells,no activation
same,activation of CAR-expressing Jurkat cells (IL-2 production),[1]; co-culture with antigen-positive HepG2 cells,dose-dependent activation
same,induction of complex formation,[2],induction of complex formation was specific for simeprevir
same,induction of complex formation,[3],induction of complex formation was specific for simeprevir
